Results taken from patent US20100273189A1, “NON SEPARATION ASSAYS WITH SELECTIVE SIGNAL INHIBITORS” (BECKMAN COULTER, INC., priority 2009, published 2010).

Experiments:
Assay type in all cases: biochemical
cTnI = cTnI detection via heterogeneous assay
Description: This example describes a method of detecting cTnI (Cardiac Troponin I) using an AK-Abl particle prepared e.g., as set forth in Example 3 and a HRP-Ab2 conjugate prepared e.g., as set forth in Example 4 where Ab2 represents an antibody to cTnI. The effect of ascorbic acid on background signal was investigated.
HRP-Ab2 conjugate suspensions were prepared at 1.0 μg/mL and contained either 0 or 1 mM ascorbic acid. Samples consisted of human serum samples with the indicated mounts of cTnI added or no cTnI as a control. The test procedure consisted of adding 20 μL of 1.0 μg/mL HRP-Ab2 conjugate and 30 μL of MES buffer containing 1 mg/mL BSA and 1 mg/mL MIgG, pH 5.9 to the reaction vessel. Next, 25 μL of patient serum sample was added, followed by 25 μL of 1.0 mg/mL AK-Abl conjugate suspension thereby obtaining 100 μL of total volume in the reaction vessel. After 15.2 minutes, 100 μL of trigger solution A was added to the reaction vessel and the light intensity was recorded on the modified DxI instrument. Chemiluminescence intensity is expressed in Relative Light Units (RLU).

TnI = experiment: Effect of trigger pH: TnI on LodeStars with ascorbate
Description: (§1) B. In order to determine the effect of trigger solution pH on a variety of test assay systems, a series of experiments were conducted varying trigger pH. […] In the tables, two pH values are listed for each data set. The first is the pH of the buffer sample added to the reaction mixture. The second is the resulting pH of the final reaction mix.

PSA = experiment: Effect of trigger pH: PSA on LodeStar particles with ascorbate
Description: as §1

[1] = with ascorbic acid, S1, cTnI 172 pg/mL
[2] = with ascorbic acid, S2, cTnI 366 pg/mL
[3] = with ascorbic acid, S3, cTnI 1368 pg/mL
[4] = with ascorbic acid, S4, cTnI 11136 pg/mL
[5] = with ascorbic acid, S5, cTnI 27922 pg/mL
[6] = with ascorbic acid, S6, cTnI 106000 pg/mL
[7] = Control (7.5), S1, TnI 172 ng/ml
[8] = Control (7.5), S2, TnI 366 ng/ml
[9] = Control (7.5), S3, TnI 1368 ng/ml
[10] = Control (7.5), S4, TnI 11136 ng/ml
[11] = Control (7.5), S5, TnI 27922 ng/ml
[12] = Control (7.5), S6, TnI 10600 ng/ml
[13] = pH 6.0 (5.9), S1, TnI 172 ng/ml
[14] = pH 6.0 (5.9), S2, TnI 366 ng/ml
[15] = pH 6.0 (5.9), S3, TnI 1368 ng/ml
[16] = pH 6.0 (5.9), S4, TnI 11136 ng/ml
[17] = pH 6.0 (5.9), S5, TnI 27922 ng/ml
[18] = pH 6.0 (5.9), S6, TnI 10600 ng/ml
[19] = pH 7.0 (7.1), S1, TnI 172 ng/ml
[20] = pH 7.0 (7.1), S2, TnI 366 ng/ml
[21] = pH 7.0 (7.1), S3, TnI 1368 ng/ml
[22] = pH 7.0 (7.1), S4, TnI 11136 ng/ml
[23] = pH 7.0 (7.1), S5, TnI 27922 ng/ml
[24] = pH 7.0 (7.1), S6, TnI 10600 ng/ml
[25] = pH 8.0 (7.9), S1, TnI 172 ng/ml
[26] = pH 8.0 (7.9), S2, TnI 366 ng/ml
[27] = pH 8.0 (7.9), S3, TnI 1368 ng/ml
[28] = pH 8.0 (7.9), S4, TnI 11136 ng/ml
[29] = pH 8.0 (7.9), S5, TnI 27922 ng/ml
[30] = pH 8.0 (7.9), S6, TnI 10600 ng/ml
[31] = pH 9.0 (8.7), S1, TnI 172 ng/ml
[32] = pH 9.0 (8.7), S2, TnI 366 ng/ml
[33] = pH 9.0 (8.7), S3, TnI 1368 ng/ml
[34] = pH 9.0 (8.7), S4, TnI 11136 ng/ml
[35] = pH 9.0 (8.7), S5, TnI 27922 ng/ml
[36] = pH 9.0 (8.7), S6, TnI 10600 ng/ml
[37] = Control (7.7), S1, PSA 400 pg/ml
[38] = Control (7.7), S2, PSA 1400 pg/ml
[39] = Control (7.7), S3, PSA 7000 pg/ml
[40] = Control (7.7), S4, PSA 51000 pg/ml
[41] = Control (7.7), S5, PSA 101600 pg/ml
[42] = pH 6.0 (6.2), S1, PSA 400 pg/ml
[43] = pH 6.0 (6.2), S2, PSA 1400 pg/ml
[44] = pH 6.0 (6.2), S3, PSA 7000 pg/ml
[45] = pH 6.0 (6.2), S4, PSA 51000 pg/ml
[46] = pH 6.0 (6.2), S5, PSA 101600 pg/ml
[47] = pH 7.0 (7.4), S1, PSA 400 pg/ml
[48] = pH 7.0 (7.4), S2, PSA 1400 pg/ml
[49] = pH 7.0 (7.4), S3, PSA 7000 pg/ml
[50] = pH 7.0 (7.4), S4, PSA 51000 pg/ml
[51] = pH 7.0 (7.4), S5, PSA 101600 pg/ml
[52] = pH 8.0 (7.9), S1, PSA 400 pg/ml
[53] = pH 8.0 (7.9), S2, PSA 1400 pg/ml
[54] = pH 8.0 (7.9), S3, PSA 7000 pg/ml
[55] = pH 8.0 (7.9), S4, PSA 51000 pg/ml
[56] = pH 8.0 (7.9), S5, PSA 101600 pg/ml
[57] = pH 9.0 (8.4), S1, PSA 400 pg/ml
[58] = pH 9.0 (8.4), S2, PSA 1400 pg/ml
[59] = pH 9.0 (8.4), S3, PSA 7000 pg/ml
[60] = pH 9.0 (8.4), S4, PSA 51000 pg/ml
[61] = pH 9.0 (8.4), S5, PSA 101600 pg/ml

O=C1O[C@H]([C@@H](O)CO)C(O)=C1O [Ascorbic Acid, Ascorbic acid]
background signal (cTnI; in the presence of ascorbic acid, in words): significant reduction in background signal
RLU (cTnI; second column pair (with 1 mM ascorbic acid in conjugate), S0, cTnI 0 pg/mL): 422 RLU
RLU (cTnI; [1]): 1320 RLU
S/S0 (cTnI; [1]): 3.1
RLU (cTnI; [2]): 2778 RLU
S/S0 (cTnI; [2]): 6.6
RLU (cTnI; [3]): 10254 RLU
S/S0 (cTnI; [3]): 24.3
RLU (cTnI; [4]): 108628 RLU
S/S0 (cTnI; [4]): 257.4
RLU (cTnI; [5]): 325082 RLU
S/S0 (cTnI; [5]): 770.3
RLU (cTnI; [6]): 2380772 RLU
S/S0 (cTnI; [6]): 5641.6
Ave RLUs (TnI; Control (7.5), S0, TnI 0 ng/ml): 543 RLU
Ave RLUs (TnI; [7]): 1,013 RLU
S/S0 (TnI; [7]): 1.9
Ave RLUs (TnI; [8]): 1,815 RLU
S/S0 (TnI; [8]): 3.3
Ave RLUs (TnI; [9]): 5,981 RLU
S/S0 (TnI; [9]): 11.0
Ave RLUs (TnI; [10]): 53,524 RLU
S/S0 (TnI; [10]): 98.6
Ave RLUs (TnI; [11]): 155,889 RLU
S/S0 (TnI; [11]): 287.3
Ave RLUs (TnI; [12]): 1,235,103 RLU
S/S0 (TnI; [12]): 2276.0
Ave RLUs (TnI; pH 6.0 (5.9), S0, TnI 0 ng/ml): 273 RLU
Ave RLUs (TnI; [13]): 379 RLU
S/S0 (TnI; [13]): 1.4
Ave RLUs (TnI; [14]): 600 RLU
S/S0 (TnI; [14]): 2.2
Ave RLUs (TnI; [15]): 1,452 RLU
S/S0 (TnI; [15]): 5.3
Ave RLUs (TnI; [16]): 11,579 RLU
S/S0 (TnI; [16]): 42.4
Ave RLUs (TnI; [17]): 32,519 RLU
S/S0 (TnI; [17]): 119.0
Ave RLUs (TnI; [18]): 216,379 RLU
S/S0 (TnI; [18]): 791.6
Ave RLUs (TnI; pH 7.0 (7.1), S0, TnI 0 ng/ml): 519 RLU
Ave RLUs (TnI; [19]): 1,031 RLU
S/S0 (TnI; [19]): 2.0
Ave RLUs (TnI; [20]): 1,703 RLU
S/S0 (TnI; [20]): 3.3
Ave RLUs (TnI; [21]): 5,695 RLU
S/S0 (TnI; [21]): 11.0
Ave RLUs (TnI; [22]): 57,599 RLU
S/S0 (TnI; [22]): 111.1
Ave RLUs (TnI; [23]): 145,140 RLU
S/S0 (TnI; [23]): 279.8
Ave RLUs (TnI; [24]): 938,075 RLU
S/S0 (TnI; [24]): 1808.6
Ave RLUs (TnI; pH 8.0 (7.9), S0, TnI 0 ng/ml): 699 RLU
Ave RLUs (TnI; [25]): 1,319 RLU
S/S0 (TnI; [25]): 1.9
Ave RLUs (TnI; [26]): 2,359 RLU
S/S0 (TnI; [26]): 3.4
Ave RLUs (TnI; [27]): 8,048 RLU
S/S0 (TnI; [27]): 11.5
Ave RLUs (TnI; [28]): 72,016 RLU
S/S0 (TnI; [28]): 103.1
Ave RLUs (TnI; [29]): 225,113 RLU
S/S0 (TnI; [29]): 322.2
Ave RLUs (TnI; [30]): 1,574,655 RLU
S/S0 (TnI; [30]): 2253.8
Ave RLUs (TnI; pH 9.0 (8.7), S0, TnI 0 ng/ml): 413 RLU
Ave RLUs (TnI; [31]): 716 RLU
S/S0 (TnI; [31]): 1.7
Ave RLUs (TnI; [32]): 1,097 RLU
S/S0 (TnI; [32]): 2.7
Ave RLUs (TnI; [33]): 3,999 RLU
S/S0 (TnI; [33]): 9.7
Ave RLUs (TnI; [34]): 36,424 RLU
S/S0 (TnI; [34]): 88.1
Ave RLUs (TnI; [35]): 107,020 RLU
S/S0 (TnI; [35]): 258.9
Ave RLUs (TnI; [36]): 855,956 RLU
S/S0 (TnI; [36]): 2070.9
Mean RLU (PSA; Control (7.7), S0, PSA 0 pg/ml): 8,192 RLU
Mean RLU (PSA; [37]): 91,301 RLU
S/S0 (PSA; [37]): 11.1
Mean RLU (PSA; [38]): 403,035 RLU
S/S0 (PSA; [38]): 49.2
Mean RLU (PSA; [39]): 2,803,433 RLU
S/S0 (PSA; [39]): 342.2
Mean RLU (PSA; [40]): 10,490,375 RLU
S/S0 (PSA; [40]): 1280.6
Mean RLU (PSA; [41]): 10,598,780 RLU
S/S0 (PSA; [41]): 1293.8
Mean RLU (PSA; pH 6.0 (6.2), S0, PSA 0 pg/ml): 3,301 RLU
Mean RLU (PSA; [42]): 34,485 RLU
S/S0 (PSA; [42]): 10.4
Mean RLU (PSA; [43]): 114,219 RLU
S/S0 (PSA; [43]): 34.6
Mean RLU (PSA; [44]): 786,859 RLU
S/S0 (PSA; [44]): 238.3
Mean RLU (PSA; [45]): 3,198,045 RLU
S/S0 (PSA; [45]): 968.7
Mean RLU (PSA; [46]): 3,728,345 RLU
S/S0 (PSA; [46]): 1129.3
Mean RLU (PSA; pH 7.0 (7.4), S0, PSA 0 pg/ml): 7,704 RLU
Mean RLU (PSA; [47]): 87,221 RLU
S/S0 (PSA; [47]): 11.3
Mean RLU (PSA; [48]): 333,253 RLU
S/S0 (PSA; [48]): 43.3
Mean RLU (PSA; [49]): 2,640,633 RLU
S/S0 (PSA; [49]): 342.8
Mean RLU (PSA; [50]): 9,524,603 RLU
S/S0 (PSA; [50]): 1236.3
Mean RLU (PSA; [51]): 10,001,948 RLU
S/S0 (PSA; [51]): 1298.3
Mean RLU (PSA; pH 8.0 (7.9), S0, PSA 0 pg/ml): 9,345 RLU
Mean RLU (PSA; [52]): 96,427 RLU
S/S0 (PSA; [52]): 10.3
Mean RLU (PSA; [53]): 429,327 RLU
S/S0 (PSA; [53]): 45.9
Mean RLU (PSA; [54]): 3,433,037 RLU
S/S0 (PSA; [54]): 367.4
Mean RLU (PSA; [55]): 11,497,652 RLU
S/S0 (PSA; [55]): 1230.3
Mean RLU (PSA; [56]): 11,461,215 RLU
S/S0 (PSA; [56]): 1226.4
Mean RLU (PSA; pH 9.0 (8.4), S0, PSA 0 pg/ml): 5,821 RLU
Mean RLU (PSA; [57]): 73,801 RLU
S/S0 (PSA; [57]): 12.7
Mean RLU (PSA; [58]): 315,528 RLU
S/S0 (PSA; [58]): 54.2
Mean RLU (PSA; [59]): 2,592,673 RLU
S/S0 (PSA; [59]): 445.4
Mean RLU (PSA; [60]): 11,443,659 RLU
S/S0 (PSA; [60]): 1965.8
Mean RLU (PSA; [61]): 11,479,280 RLU
S/S0 (PSA; [61]): 1971.9
